system: ANS; test: Enzyme assay with recombinant ANS protein, HPLC detection of cyanidin; type: biochemical, Medicago truncatula; settings: 50 μg recombinant protein, 1 h at 30° C., HPLC at 530 nm; flavan-3-ols at 200 μM
Experimental: (§1) The full length ANS and LDOX cDNAs were cloned into pMal-c5x vector (New England Biolabs) at the SalI and BamHI site and BamHI and EcoRI site, respectively. The expression constructs were transformed into E. coli strain NEB® Express Competent E. coli (New England Biolabs). Transformed bacteria were grown in LB medium supplemented with 0.2% glucose to OD 600 of 0.5, and IPTG was added at 0.3 mM to induce protein expression. Bacteria were harvested after 4 h induction. ANS and LDOX proteins were purified with amylose resin (NEB, E8021) following the manufacturer's protocol. Briefly, bacteria were lysed by sonication at 4° C. in extraction buffer (20 mM Tris pH 7.0, 200 mM NaCl, 1 mM DTT). The bacterial lysates were centrifuged at 12,000 g for 15 min at 4° C. The supernatants were loaded on amylose resin which was washed with wash buffer (extraction buffer). Finally, proteins were eluted by elution buffer (20 mM Tris pH 7.0, 200 mM NaCl, 1 mM DTT, 10 mM maltose). Purified proteins were concentrated with an Amicon® Ultra-4 Centrifugal Filter (Millipore) and aliquoted to store at −80° C.
(§2) It was previously reported that ANS can convert leucocyanidin to cyanidin. To confirm this, separate enzyme reactions were set up for ANS and LDOX by incubating with leucocyanidin according to Tanner et al. The enzyme reaction was prepared in 100 μL volume including 20 mM potassium phosphate buffer (pH 7.0), 1 mM 2-oxoglutarate, 0.4 mM ammonium iron(II) sulfate, 4 mM sodium ascorbate, 100 mM NaCl, 10 mM maltose, 5 mM DTT and 50 μg recombinant proteins. The reactions were carried out for 1 h at 30° C. and terminated by addition of 1 μL 36% HCl and 10 μL 100% methanol. The reaction mixture was centrifuged for 5 min at 13,000 rpm at 4° C. and analyzed by HPLC. All reverse-phase HPLC analyses were performed on an Agilent HP1100 HPLC using the following gradient: solvent A (1% phosphoric acid) and B (acetonitrile) at 1 ml/min flow rate: 0-5 min, 5% B; 5-10 min, 5-10% B; 10-25 min, 10-17% B; 25-30 min, 17-23% B; 30-65 min, 23-50% B; 65-79 min, 50-100% B; 79-80 min, 100-5% B. Data were collected at 280 and 530 nm for flavonoids and anthocyanidins, respectively. Identifications were based on chromatographic behavior and UV spectra compared with those of authentic standards.
(§3) Since catechin was highly accumulated in the ldox mutant, it was tested whether ANS or LDOX protein can react with (+)-catechin (2R, 3S), which is stated as a naturally synthesized monomeric unit of PAs. The same enzyme reaction was set up but using 200 μM of (+)-catechin as substrate instead of leucocyanidin. Reactions without 2-oxoglutarate (-oxo) were run as negative controls. […] The enzyme reaction was performed with (+)-catechin as substrate and recombinant ANS or LDOX protein. Arrowhead indicates the peak for cyanidin (Cy) standard. Reactions without 2-oxoglutarate were run as negative controls and are denoted as -oxo. […] The enzyme assay was performed with (−)-catechin, (−)-epicatechin or (+)-epicatechin as substrate and purified recombinant ANS or LDOX protein. The substrate in each reaction is indicated. (−)-cat, (−)-catechin; (−)-epi, (−)-epicatechin; (+)-epi, (+)-epicatechin. […] The gray arrow denotes the catalyzed reaction in vitro. The proteins used are indicated in each chromatogram.

Compound	in vitro conversion of substrate to cyanidin by ANS
Oc1cc(O)c2c(c1)O[C@H](c1ccc(O)c(O)c1)[C@@H](O)C2 [(+)-catechin]	catalyze the in vitro conversion of (+)-catechin to cyanidin
Oc1cc(O)c2c(c1)O[C@@H](c1ccc(O)c(O)c1)[C@@H](O)C2 [(+)-epicatechin]	No cyanidin generation was detected
Oc1cc(O)c2c(c1)O[C@H](c1ccc(O)c(O)c1)[C@H](O)C2 [(−)-epicatechin]	No cyanidin generation was detected
Oc1cc(O)c2c(c1)OC(c1ccc(O)c(O)c1)C(O)C2O (stereo not drawn) [leucocyanidin]	catalyzed in vitro conversion of leucocyanidin to cyanidin
(−)-catechin	No cyanidin generation was detected

system: LDOX; test: Enzyme assay with recombinant LDOX protein, HPLC detection of cyanidin; type: biochemical, Medicago truncatula; settings: 50 μg recombinant protein, 1 h at 30° C., HPLC at 530 nm; flavan-3-ols at 200 μM
Experimental: as §1, §2, §3

Compound	in vitro conversion of substrate to cyanidin by LDOX
Oc1cc(O)c2c(c1)O[C@H](c1ccc(O)c(O)c1)[C@@H](O)C2 [(+)-catechin]	catalyze the in vitro conversion of (+)-catechin to cyanidin
Oc1cc(O)c2c(c1)O[C@@H](c1ccc(O)c(O)c1)[C@@H](O)C2 [(+)-epicatechin]	No cyanidin generation was detected
Oc1cc(O)c2c(c1)O[C@H](c1ccc(O)c(O)c1)[C@H](O)C2 [(−)-epicatechin]	No cyanidin generation was detected
Oc1cc(O)c2c(c1)OC(c1ccc(O)c(O)c1)C(O)C2O (stereo not drawn) [leucocyanidin]	catalyzed in vitro conversion of leucocyanidin to cyanidin
(−)-catechin	No cyanidin generation was detected

system: ANS and ANR proteins; test: Combined enzyme reaction of ANS with ANR; type: biochemical, Medicago truncatula; settings: 200 μM substrate, 10 mM NADPH, 50 μg ANS and ANR proteins, HPLC at 280 nm
Experimental: as §2
(§4) Next, the combined reaction of ANS or LDOX with ANR was tested to check if (+)-catechin can be converted to (−)-epicatechin, which is the almost exclusive monomer unit of PA polymers in Medicago truncatula. […]

Compound	(+)-catechin converted to epicatechin
Oc1cc(O)c2c(c1)O[C@H](c1ccc(O)c(O)c1)[C@@H](O)C2 [(+)-catechin]	more than 70%

system: LDOX and ANR proteins; test: Combined enzyme reaction of LDOX with ANR; type: biochemical, Medicago truncatula; settings: 200 μM substrate, 10 mM NADPH, 50 μg LDOX and ANR proteins, HPLC at 280 nm
Experimental: as §2, §4

Compound	(+)-catechin converted to epicatechin
Oc1cc(O)c2c(c1)O[C@H](c1ccc(O)c(O)c1)[C@@H](O)C2 [(+)-catechin]	more than 70%
